According to US20020111274A1, “1-alkyl-3-[1-(substituted phenyl) benzotriazol-6-yl] uracils” (BASF Aktiengesellschaft, priority 2000, published 2002):

Experiments:
Parameters in all cases: scale not given here
ABUTH Velvetleaf [1] = assay: Postemergence herbicidal evaluation, ABUTH; type: in vivo, Abutilon theophrasti, Medic.; settings: postemergence spray, rated about two-three weeks after treatment
Procedure, shortened: (§1)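 Postemergence spray, 40 psi nozzle, on ~2-week seedlings. Carrier: acetone/water 80/20, 1.0% methylated seed oil; dose ~0.006–0.400 kg/ha. Scored visually at 2–3 weeks.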

AMBEL Ragweed, Common [2] = assay: Postemergence herbicidal evaluation, AMBEL; type: in vivo, Ambrosia artemisifolia, L.; settings: postemergence spray, rated about two-three weeks after treatment
Procedure, shortened: as §1

CASOB Sicklepod [3] = assay: Postemergence herbicidal evaluation, CASOB; type: in vivo, Cassia obtusifolia, L.; settings: postemergence spray, rated about two-three weeks after treatment
Procedure, shortened: as §1

[4] = tested on: CHEAL Lambsquarters, Common; assay: Postemergence herbicidal evaluation, CHEAL; type: in vivo, Chenopodium album, L.; settings: postemergence spray, rated about two-three weeks after treatment
Procedure, shortened: as §1

ECHOG Barnyardgrass [5] = assay: Postemergence herbicidal evaluation, ECHOG; type: in vivo, Echinochloa crus-galli, (L.) Beau; settings: postemergence spray, rated about two-three weeks after treatment
Procedure, shortened: as §1

GALAP Galium [6] = assay: Postemergence herbicidal evaluation, GALAP; type: in vivo, Galium aparine; settings: postemergence spray, rated about two-three weeks after treatment
Procedure, shortened: as §1

[7] = tested on: IPOHE Morningglory, Ivyleaf; assay: Postemergence herbicidal evaluation, IPOHE; type: in vivo, Ipomoea hederacea, (L.) Jacq.; settings: postemergence spray, rated about two-three weeks after treatment
Procedure, shortened: as §1

SETVI Foxtail, Green [8] = assay: Postemergence herbicidal evaluation, SETVI; type: in vivo, Setaria viridis, (L.) Beau; settings: postemergence spray, rated about two-three weeks after treatment
Procedure, shortened: as §1

GLXMAW Soybean, Williams [9] = assay: Postemergence herbicidal evaluation, GLXMAW; type: in vivo, Glycine max, (L.) Merr. cv Williams; settings: postemergence spray, rated about two-three weeks after treatment
Procedure, shortened: as §1

[10] = tested on: TRZAWR Wheat, Winter, cv Riband; assay: Postemergence herbicidal evaluation, TRZAWR; type: in vivo, Triticum aestivum; settings: postemergence spray, rated about two-three weeks after treatment
Procedure, shortened: as §1

ORYSAT Rice, Tebonnet [11] = assay: Postemergence herbicidal evaluation, ORYSAT; type: in vivo, Oryza sativa, (L.); settings: postemergence spray, rated about two-three weeks after treatment
Procedure, shortened: as §1

ZEAMX Corn, Field [12] = assay: Postemergence herbicidal evaluation, ZEAMX; type: in vivo, Zea mays, L. (Sammel-Bezeichnung); settings: postemergence spray, rated about two-three weeks after treatment
Procedure, shortened: as §1

ABUTH Velvetleaf [13] = assay: Preemergence herbicidal evaluation, ABUTH; type: in vivo, Abutilon theophrasti, Medic.; settings: preemergence
Procedure, shortened: (§2)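 Seeds mixed with potting soil were planted on about one inch of soil in cups, then sprayed with the test compound in aqueous acetone at roughly 0.013 to 0.800 kg per hectare. Plants were kept under standard greenhouse care and injury was rated four to five weeks after treatment.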

AMBEL Ragweed, Common [14] = assay: Preemergence herbicidal evaluation, AMBEL; type: in vivo, Ambrosia artemisifolia, L.; settings: preemergence
Procedure, shortened: as §2

CASOB Sicklepod [15] = assay: Preemergence herbicidal evaluation, CASOB; type: in vivo, Cassia obtusifolia, L.; settings: preemergence
Procedure, shortened: as §2

[16] = tested on: CHEAL Lambsquarters, Common; assay: Preemergence herbicidal evaluation, CHEAL; type: in vivo, Chenopodium album, L.; settings: preemergence
Procedure, shortened: as §2

ECHOG Barnyardgrass [17] = assay: Preemergence herbicidal evaluation, ECHOG; type: in vivo, Echinochloa crus-galli, (L.) Beau; settings: preemergence
Procedure, shortened: as §2

GALAP Galium [18] = assay: Preemergence herbicidal evaluation, GALAP; type: in vivo, Galium aparine; settings: preemergence
Procedure, shortened: as §2

[19] = tested on: IPOHE Morningglory, Ivyleaf; assay: Preemergence herbicidal evaluation, IPOHE; type: in vivo, Ipomoea hederacea, (L.) Jacq.; settings: preemergence
Procedure, shortened: as §2

SETVI Foxtail, Green [20] = assay: Preemergence herbicidal evaluation, SETVI; type: in vivo, Setaria viridis, (L.) Beau; settings: preemergence
Procedure, shortened: as §2

GLXMAW Soybean, Williams [21] = assay: Preemergence herbicidal evaluation, GLXMAW; type: in vivo, Glycine max, (L.) Merr. cv Williams; settings: preemergence
Procedure, shortened: as §2

[22] = tested on: TRZAWR Wheat, Winter, cv Riband; assay: Preemergence herbicidal evaluation, TRZAWR; type: in vivo, Triticum aestivum; settings: preemergence
Procedure, shortened: as §2

ORYSAT Rice, Tebonnet [23] = assay: Preemergence herbicidal evaluation, ORYSAT; type: in vivo, Oryza sativa, (L.); settings: preemergence
Procedure, shortened: as §2

ZEAMX Corn, Field [24] = assay: Preemergence herbicidal evaluation, ZEAMX; type: in vivo, Zea mays, L. (Sammel-Bezeichnung); settings: preemergence
Procedure, shortened: as §2

## Cc1ccc(O)cc1-n1nnc2cc(F)c(-n3c(=O)cc(C(F)(F)F)n(C)c3=O)cc21 [Example 32]
ABUTH Velvetleaf [1]; 0.008 kg/ha
  Postemergence herbicidal rating ABUTH: 0.0
ABUTH Velvetleaf [1]; 0.016 kg/ha
  Postemergence herbicidal rating ABUTH: 0.0
ABUTH Velvetleaf [1]; 0.032 kg/ha
  Postemergence herbicidal rating ABUTH: 0.0
ABUTH Velvetleaf [1]; 0.062 kg/ha
  Postemergence herbicidal rating ABUTH: 4.0
AMBEL Ragweed, Common [2]; 0.008 kg/ha
  Postemergence herbicidal rating AMBEL: 0.0
AMBEL Ragweed, Common [2]; 0.016 kg/ha
  Postemergence herbicidal rating AMBEL: 0.0
AMBEL Ragweed, Common [2]; 0.032 kg/ha
  Postemergence herbicidal rating AMBEL: 0.0
AMBEL Ragweed, Common [2]; 0.062 kg/ha
  Postemergence herbicidal rating AMBEL: 0.0
CASOB Sicklepod [3]; 0.008 kg/ha
  Postemergence herbicidal rating CASOB: 0.0
CASOB Sicklepod [3]; 0.016 kg/ha
  Postemergence herbicidal rating CASOB: 0.0
CASOB Sicklepod [3]; 0.032 kg/ha
  Postemergence herbicidal rating CASOB: 0.0
CASOB Sicklepod [3]; 0.062 kg/ha
  Postemergence herbicidal rating CASOB: 0.0
[4]; 0.008 kg/ha
  Postemergence herbicidal rating CHEAL: 0.0
[4]; 0.016 kg/ha
  Postemergence herbicidal rating CHEAL: 0.0
[4]; 0.032 kg/ha
  Postemergence herbicidal rating CHEAL: 0.0
[4]; 0.062 kg/ha
  Postemergence herbicidal rating CHEAL: 0.0
ECHOG Barnyardgrass [5]; 0.008 kg/ha
  Postemergence herbicidal rating ECHCG: 0.0
ECHOG Barnyardgrass [5]; 0.016 kg/ha
  Postemergence herbicidal rating ECHCG: 0.0
ECHOG Barnyardgrass [5]; 0.032 kg/ha
  Postemergence herbicidal rating ECHCG: 0.0
ECHOG Barnyardgrass [5]; 0.062 kg/ha
  Postemergence herbicidal rating ECHCG: 0.0
GALAP Galium [6]; 0.008 kg/ha
  Postemergence herbicidal rating GALAP: 0.0
GALAP Galium [6]; 0.016 kg/ha
  Postemergence herbicidal rating GALAP: 0.0
GALAP Galium [6]; 0.032 kg/ha
  Postemergence herbicidal rating GALAP: 0.0
GALAP Galium [6]; 0.062 kg/ha
  Postemergence herbicidal rating GALAP: 0.0
[7]; 0.008 kg/ha
  Postemergence herbicidal rating IPOHE: 0.0
[7]; 0.016 kg/ha
  Postemergence herbicidal rating IPOHE: 0.0
[7]; 0.032 kg/ha
  Postemergence herbicidal rating IPOHE: 0.0
[7]; 0.062 kg/ha
  Postemergence herbicidal rating IPOHE: 0.0
SETVI Foxtail, Green [8]; 0.008 kg/ha
  Postemergence herbicidal rating SETVI: 0.0
SETVI Foxtail, Green [8]; 0.016 kg/ha
  Postemergence herbicidal rating SETVI: 0.0
SETVI Foxtail, Green [8]; 0.032 kg/ha
  Postemergence herbicidal rating SETVI: 0.0
SETVI Foxtail, Green [8]; 0.062 kg/ha
  Postemergence herbicidal rating SETVI: 0.0
GLXMAW Soybean, Williams [9]; 0.008 kg/ha
  Postemergence herbicidal rating GLXMAW: 2.0
GLXMAW Soybean, Williams [9]; 0.016 kg/ha
  Postemergence herbicidal rating GLXMAW: 2.5
GLXMAW Soybean, Williams [9]; 0.032 kg/ha
  Postemergence herbicidal rating GLXMAW: 3.0
GLXMAW Soybean, Williams [9]; 0.062 kg/ha
  Postemergence herbicidal rating GLXMAW: 3.0
[10]; 0.008 kg/ha
  Postemergence herbicidal rating TRZAWR: 1.0
[10]; 0.016 kg/ha
  Postemergence herbicidal rating TRZAWR: 2.5
[10]; 0.032 kg/ha
  Postemergence herbicidal rating TRZAWR: 2.5
[10]; 0.062 kg/ha
  Postemergence herbicidal rating TRZAWR: 3.0
ORYSAT Rice, Tebonnet [11]; 0.008 kg/ha
  Postemergence herbicidal rating ORYSAT: 1.0
ORYSAT Rice, Tebonnet [11]; 0.016 kg/ha
  Postemergence herbicidal rating ORYSAT: 1.5
ORYSAT Rice, Tebonnet [11]; 0.032 kg/ha
  Postemergence herbicidal rating ORYSAT: 1.5
ORYSAT Rice, Tebonnet [11]; 0.062 kg/ha
  Postemergence herbicidal rating ORYSAT: 2.0
ZEAMX Corn, Field [12]; 0.008 kg/ha
  Postemergence herbicidal rating ZEAMX: 2.0
ZEAMX Corn, Field [12]; 0.016 kg/ha
  Postemergence herbicidal rating ZEAMX: 2.5
ZEAMX Corn, Field [12]; 0.032 kg/ha
  Postemergence herbicidal rating ZEAMX: 2.5
ZEAMX Corn, Field [12]; 0.062 kg/ha
  Postemergence herbicidal rating ZEAMX: 2.5
ABUTH Velvetleaf [13]; rate 0.016 kg/ha
  ABUTH herbicidal rating: 0.0
ABUTH Velvetleaf [13]; rate 0.032 kg/ha
  ABUTH herbicidal rating: 0.0
ABUTH Velvetleaf [13]; rate 0.062 kg/ha
  ABUTH herbicidal rating: 0.0
ABUTH Velvetleaf [13]; rate 0.125 kg/ha
  ABUTH herbicidal rating: 4.0
AMBEL Ragweed, Common [14]; rate 0.016 kg/ha
  AMBEL herbicidal rating: 0.0
AMBEL Ragweed, Common [14]; rate 0.032 kg/ha
  AMBEL herbicidal rating: 0.0
AMBEL Ragweed, Common [14]; rate 0.062 kg/ha
  AMBEL herbicidal rating: 0.0
AMBEL Ragweed, Common [14]; rate 0.125 kg/ha
  AMBEL herbicidal rating: 0.0
CASOB Sicklepod [15]; rate 0.016 kg/ha
  CASOB herbicidal rating: 0.0
CASOB Sicklepod [15]; rate 0.032 kg/ha
  CASOB herbicidal rating: 0.0
CASOB Sicklepod [15]; rate 0.062 kg/ha
  CASOB herbicidal rating: 0.0
CASOB Sicklepod [15]; rate 0.125 kg/ha
  CASOB herbicidal rating: 0.0
[16]; rate 0.016 kg/ha
  CHEAL herbicidal rating: 0.0
[16]; rate 0.032 kg/ha
  CHEAL herbicidal rating: 0.0
[16]; rate 0.062 kg/ha
  CHEAL herbicidal rating: 0.0
[16]; rate 0.125 kg/ha
  CHEAL herbicidal rating: 6.0
ECHOG Barnyardgrass [17]; rate 0.016 kg/ha
  ECHCG herbicidal rating: 0.0
ECHOG Barnyardgrass [17]; rate 0.032 kg/ha
  ECHCG herbicidal rating: 0.0
ECHOG Barnyardgrass [17]; rate 0.062 kg/ha
  ECHCG herbicidal rating: 0.0
ECHOG Barnyardgrass [17]; rate 0.125 kg/ha
  ECHCG herbicidal rating: 0.0
GALAP Galium [18]; rate 0.016 kg/ha
  GALAP herbicidal rating: 0.0
GALAP Galium [18]; rate 0.032 kg/ha
  GALAP herbicidal rating: 0.0
GALAP Galium [18]; rate 0.062 kg/ha
  GALAP herbicidal rating: 0.0
[19]; rate 0.016 kg/ha
  IPOHE herbicidal rating: 0.0
[19]; rate 0.032 kg/ha
  IPOHE herbicidal rating: 0.0
[19]; rate 0.062 kg/ha
  IPOHE herbicidal rating: 0.0
[19]; rate 0.125 kg/ha
  IPOHE herbicidal rating: 0.0
SETVI Foxtail, Green [20]; rate 0.016 kg/ha
  SETVI herbicidal rating: 0.0
SETVI Foxtail, Green [20]; rate 0.032 kg/ha
  SETVI herbicidal rating: 0.0
SETVI Foxtail, Green [20]; rate 0.062 kg/ha
  SETVI herbicidal rating: 0.0
SETVI Foxtail, Green [20]; rate 0.125 kg/ha
  SETVI herbicidal rating: 0.0
GLXMAW Soybean, Williams [21]; rate 0.016 kg/ha
  GLXMAW herbicidal rating: 0.0
GLXMAW Soybean, Williams [21]; rate 0.032 kg/ha
  GLXMAW herbicidal rating: 0.0
GLXMAW Soybean, Williams [21]; rate 0.062 kg/ha
  GLXMAW herbicidal rating: 0.0
GLXMAW Soybean, Williams [21]; rate 0.125 kg/ha
  GLXMAW herbicidal rating: 1.0
[22]; rate 0.016 kg/ha
  TRZAWR herbicidal rating: 0.0
[22]; rate 0.032 kg/ha
  TRZAWR herbicidal rating: 0.0
[22]; rate 0.062 kg/ha
  TRZAWR herbicidal rating: 0.0
[22]; rate 0.125 kg/ha
  TRZAWR herbicidal rating: 0.0
ORYSAT Rice, Tebonnet [23]; rate 0.016 kg/ha
  ORYSAT herbicidal rating: 0.0
ORYSAT Rice, Tebonnet [23]; rate 0.032 kg/ha
  ORYSAT herbicidal rating: 0.0
ORYSAT Rice, Tebonnet [23]; rate 0.062 kg/ha
  ORYSAT herbicidal rating: 0.0
ORYSAT Rice, Tebonnet [23]; rate 0.125 kg/ha
  ORYSAT herbicidal rating: 0.0
ZEAMX Corn, Field [24]; rate 0.016 kg/ha
  ZEAMX herbicidal rating: 0.0
ZEAMX Corn, Field [24]; rate 0.032 kg/ha
  ZEAMX herbicidal rating: 0.0
ZEAMX Corn, Field [24]; rate 0.062 kg/ha
  ZEAMX herbicidal rating: 0.0
ZEAMX Corn, Field [24]; rate 0.125 kg/ha
  ZEAMX herbicidal rating: 1.0
